The test system of assay [1] is ERK1/2 phosphorylation of p90RSK in HT29 cells. As to the kind of experiment: pRSK MSD Assay in HT29 cells. It is filed as cell-based. The note with it: Homo sapiens, HT-29, read-out: ERK1/ERK2 PRSK MSD HT29 EC50. The protocol:
The protocol below describes an assay to measure the kinase activity of ERK1/2 to phosphorylate a substrate, p90RSK, in the presence or absence of a test compound. This experiment was conducted using a Mesoscale Discovery plate. The day before the assay, HT29 cells were split and plated at 50,000 cells/well in complete growth media. After allowing cells to adhere, the media was removed and replaced with media containing 0.1% FBS and incubated overnight. Blank MSD plates (Mesoscale Discovery, Cat # L15XA3) were coated with 25 μl/well RSK capture antibody (BD Biosciences, Cat. #610226) and incubated at 4° C. overnight, then blocked with 150 μl of 3% BSA solution. The next day, the media from the cell culture plate was removed and replaced with 100 μl of media containing a test compound and incubated for 120 minutes at 37° C. The media was removed and replaced with 55 μl per well of lysis buffer with protease inhibitors (Roche Biosciences, Cat. #11836170001) and phosphatase inhibitors (Sigma-Aldrich, Cat. # P-0044 and P-5726), followed by incubation at 4° C. for 30 minutes. 50 μl of lysate was transferred to a blocked MSD plate, followed by incubation at room temperature for 2 hours under constant shaking. The plate was washed 3 times with MSD wash buffer (Mesoscale Discovery, Cat. # R617TX), and 25 μl/well phospho-RSK (pRSK) detection antibody (Cell Signaling Technology, Cat. #9335) was added with Sulfo-tagged detection antibody (Mesoscale Discovery, Cat. # R32AB-1) diluted in 1% BSA in MSD wash buffer. This mixture was incubated for 1 hour at room temperature under constant shaking. The plate was washed 3 times, and 150 μl 1×MSD read buffer was added, followed by signal detection in an MSD plate reader.

The target in the next assay is T1, MEK1 activated ERK1 (Homo sapiens, UniProt P27361).
T1 construct: purchased Millipore (Billerica, Mass.) 14-439-K
As to the kind of experiment: Omnia continuous-read kinase assay for potency against MEK1 activated ERK1. It is filed as biochemical. The following applies: MEK1 activated ERK1, ATP at KM; read-out: ERK1 Omnia WT ATP KM IC50. From the text: Omnia Assay Protocol for Potency Assessment Against MEK1 Activated ERK1:
The protocol below describes continuous-read kinase assays to measure potency of compounds against activated ERK1 enzyme. The mechanics of the assay platform are best described by the vendor (Invitrogen, Carlsbad, Calif.) on their website at the following URL: invitrogen.com/site/us/en/home.html.
Briefly, a 1.25× stock of ERK1 enzyme (14-439-K) from Millipore (Billerica, Mass.), 5×ATP (AS001A) and ST17-Sox conjugated peptide substrate (KNZ1171C) were prepared in 1× kinase reaction buffer consisting of 20 mM Tris, pH 7.5, 5 mM MgCl2, 1 mM EGTA, 5 mM β-glycerophosphate, 5% glycerol (10× stock, KB002A) and 0.2 mM DTT. 10 μL of ATP/ST17-sox peptide substrate mix was combined with 0.5 μL volume of 100% DMSO and serially diluted compounds were prepared in 100% DMSO in a Corning (#3574) 384-well, white, non-binding surface microtiter plate (Corning, N.Y.). Kinase reactions were started with the addition of 40 μL of ERK1 solution and monitored every 71 seconds for 30-240 minutes at λex360/λem485 in a Synergy plate reader from BioTek (Winooski, Vt.). At the conclusion of each assay, progress curves from each well were examined for linear reaction kinetics and fit statistics (R^2, 95% confidence interval, absolute sum of squares). Initial velocity (0 minutes to ˜30+ minutes) from each reaction was determined from the slope of a plot of relative fluorescence units vs time (minutes or seconds) and then plotted against inhibitor concentration to estimate ^AppIC50 from log [Inhibitor] vs Response, Variable Slope model in GraphPad Prism from GraphPad Software (San Diego, Calif.).
[Reagent] used in optimized protocol:
[ERK1]=4 nM, [ATP]=50 μM, [ST17-Sox]=10 μM (ATP ^appKM 48 μM)
The results of this assay show the degree of inhibition of ERK activity, which is a direct measurement of inhibition of ERK activity. Results from this assay are reported in Table A under the column “ERK1 Omnia WT ATP KM IC50 (nM).”

Some results are limits rather than exact numbers.

Broadly, the IC50 is the point on the concentration scale where inhibition reaches its midpoint.

T1 sequence (P27361 whole entry): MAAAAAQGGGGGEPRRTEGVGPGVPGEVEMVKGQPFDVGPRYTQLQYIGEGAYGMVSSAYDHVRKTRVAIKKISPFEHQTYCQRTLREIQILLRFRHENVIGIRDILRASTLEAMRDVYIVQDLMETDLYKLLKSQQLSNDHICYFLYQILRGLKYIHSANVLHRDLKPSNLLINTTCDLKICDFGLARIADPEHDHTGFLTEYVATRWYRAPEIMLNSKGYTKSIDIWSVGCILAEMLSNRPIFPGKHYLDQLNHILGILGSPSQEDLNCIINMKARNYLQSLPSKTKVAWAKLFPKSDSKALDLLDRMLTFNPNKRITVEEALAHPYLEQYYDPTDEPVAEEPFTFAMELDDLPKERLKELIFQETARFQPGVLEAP

With `C=CC(=O)Nc1ccccc1Nc1nc(N[C@@H]2CCC[C@H](C(=O)O)C2)ncc1C(F)(F)F` (racemic) [Compound I-14, Rac-3-((4-((2-acrylamidophenyl)amino)-5-(trifluoromethyl)pyrimidin-2-yl)amino)-cis-cyclohexanecarboxylic acid], in assay [1], the EC50 is over 1 µM. Also, the IC50 at MEK1 activated ERK1 was 0.101 to 0.5 µM.

`C=CC(=O)Nc1ccccc1Nc1nc(Nc2cncc(C(N)=O)c2)ncc1C(F)(F)F` [Compound I-63, 5-((4-((2-Acrylamidophenyl)amino)-5-(trifluoromethyl)pyrimidin-2-yl)amino)nicotinamide]: the EC50 in assay [1] is over 1 µM. Besides, the IC50 at MEK1 activated ERK1 was in the range of 0.101 to 0.5 µM.

In the case of `C=CC(=O)N(C)c1ccccc1Nc1nc(Nc2cc(C(N)=O)ccc2C#N)ncc1Cl` [Compound I-196, 3-((5-chloro-4-((2-(N-methylacrylamido)phenyl)amino)pyrimidin-2-yl)amino)-4-cyanobenzamide], the EC50 in assay [1] was over 1 µM. On MEK1 activated ERK1, the IC50 lay in the range of 0.501 to 0.999 µM.

Regarding `C=CC(=O)Nc1cc(F)ccc1Nc1nc(Nc2ccc(F)cc2OC)ncc1Cl` [Compound I-213, N-(2-((5-chloro-2-((4-fluoro-2-methoxyphenyl)amino)pyrimidin-4-yl)amino)-5-fluorophenyl)acrylamide], the EC50 in assay [1] is 0.101 to 0.5 µM. Moreover, the IC50 on MEK1 activated ERK1 fell in the range of 0.101 to 0.5 µM.

Take `C=CC(=O)Nc1ccccc1Nc1nc(N[C@H]2CCCN(C(=O)[C@H](C)O)C2)ncc1Cl` [Compound I-138, N-(2-((5-chloro-2-(((S)-1-((S)-2-hydroxypropanoyl)piperidin-3-yl)amino)pyrimidin-4-yl)amino)phenyl)acrylamide]: the EC50 in assay [1] is over 1 µM. Also, the IC50 at MEK1 activated ERK1 was in the range of 0.501 to 0.999 µM.

Regarding `CC(=O)N1CCC[C@H](Nc2ncc(C(F)(F)F)c(Nc3ccccc3NC(=O)CCl)n2)C1` [Compound I-30, (S)—N-(2-((2-((1-Acetylpiperidin-3-yl)amino)-5-(trifluoromethyl)pyrimidin-4-yl)amino)phenyl)-2-chloroacetamide], the EC50 in assay [1] was over 1 µM. Besides, the half-maximal inhibitory concentration (IC50) at MEK1 activated ERK1 is 0.101 to 0.5 µM.

With `O=C(CCl)N[C@@H]1CCCC[C@H]1Nc1nc(N[C@H]2CCCN(C(=O)CO)C2)ncc1C(F)(F)F` [Compound I-35, 2-Chloro-N-((1R,2R)-2-((2-(((S)-1-(2-hydroxyacetyl)piperidin-3-yl)amino)-5-(trifluoromethyl)pyrimidin-4-yl)amino)cyclohexyl)acetamide], in assay [1], the EC50 is over 1 µM. Further, the half-maximal inhibitory concentration (IC50) at MEK1 activated ERK1 lay within 0.101 to 0.5 µM.

In the case of `C#CC(=O)N[C@@H]1CCCC[C@H]1Nc1nc(N[C@H]2CCCN(C(=O)CO)C2)ncc1C(F)(F)F` [Compound I-34, N-((1R,2R)-2-((2-(((S)-1-(2-Hydroxyacetyl)piperidin-3-yl)amino)-5-(trifluoromethyl)pyrimidin-4-yl)amino)cyclohexyl)propiolamide], the EC50 in assay [1] is over 1 µM. Moreover, at MEK1 activated ERK1, the IC50 lay within 0.101 to 0.5 µM.

For `C=CC(=O)Nc1cc(OC)ccc1Nc1nc(Nc2ccc(N3CCC[C@H]3CO)cc2C#N)ncc1Cl` [Compound I-163, (S)—N-(2-((5-chloro-2-((2-cyano-4-(2-(hydroxymethyl)pyrrolidin-1-yl)phenyl)amino)pyrimidin-4-yl)amino)-5-methoxyphenyl)acrylamide], at MEK1 activated ERK1, the half-inhibitory concentration (IC50) was in the range of 0.501 to 0.999 µM.

With `C=C(C)S(=O)(=O)Nc1ccccc1Nc1nc(Nc2cc(C(C)=O)ccc2C)ncc1C(F)(F)F` [Compound I-97, N-(2-((2-((5-acetyl-2-methylphenyl)amino)-5-(trifluoromethyl)pyrimidin-4-yl)amino)phenyl)prop-1-ene-2-sulfonamide], at MEK1 activated ERK1, the half-maximal inhibitory concentration (IC50) is 0.501 to 0.999 µM.

For the molecule `C=CC(=O)N(C)c1ccccc1Nc1nc(N[C@H]2CC[C@H](O)CC2)ncc1Cl` [Compound I-104, N-(2-((5-chloro-2-(trans-(4-hydroxycyclohexyl)amino)pyrimidin-4-yl)amino)phenyl)-N-methylacrylamide], the IC50 at MEK1 activated ERK1 was 0.501 to 0.999 µM.

(Values after US9561228B2 (Celgene Avilomics Research, Inc., priority 2013, dated 2017).)
